Measured values reported in US4198506A, “2-Carboxyalkyl-2,3-dihydro-6-mercapto-s-triazolo[4,3-b]-pyridazin-3-ones” (Bristol-Myers Company, priority 1979, dated 1980).
Values after ≈ are worked out from the molar mass of the structure shown. Values joined by “and” are separate entries in the source; they are usually repeats but may differ in a detail not shown here. Identical values can stand only once. Like-named read-outs stand apart in the source and are kept apart here.

Columns and labels:
[1] = system: Miscellaneous (Salmonella, Shigella, Citrobacter); assay: microbe, parasite or virus in culture; conditions: read-out: Geometric Mean MIC
Sal. enteritidis = assay: In vitro antibacterial activity (Steers' agar dilution MIC); format: cell-based; conditions: Salmonella enterica
Enterob. cloacae = assay: as above; format: cell-based; conditions: read-out: MIC
B. anthracis = assay: microbe, parasite or virus in culture; format: cell-based; conditions: Bacillus anthracis
Klebsiella sp. = assay: In vitro activity (geometric mean MIC, serial dilution); format: cell-based; conditions: 12 strains, Mueller-Hinton agar, inoculum 10^4 dilution, MIC cutoff 200 mcg./ml., read-out: Geometric Mean MIC
[2] = system: S. aureus (Methicillin-R); assay: as above; format: cell-based; conditions: Staphylococcus aureus; 15 strains; Mueller-Hinton agar, inoculum 10^4 dilution; MIC cutoff 200 mcg./ml.
[3] = system: E. coli (Penicillinase +); assay: as above; format: cell-based; conditions: Escherichia coli; 7 strains; Mueller-Hinton agar, inoculum 10^4 dilution; MIC cutoff 200 mcg./ml.; read-out: Geometric Mean MIC
Proteus (indole-) = assay: as above; format: cell-based; conditions: read-out: Geometric Mean MIC
[4] = system: Proteus (indole +, cephalosporinase +); assay: as above; format: cell-based; conditions: 5 strains; Mueller-Hinton agar, inoculum 10^4 dilution; MIC cutoff 200 mcg./ml.; read-out: Geometric Mean MIC
Pr. vulgaris = assay: In vitro antibacterial activity (Steers' agar dilution MIC); format: cell-based; conditions: Proteus vulgaris, read-out: MIC
[5] = system: Enterobacter (Cephalosporinase +); assay: In vitro activity (geometric mean MIC, serial dilution); format: cell-based; conditions: 7 strains, Mueller-Hinton agar, inoculum 10^4 dilution, MIC cutoff 200 mcg./ml.
St. faecalis = assay: In vitro antibacterial activity (Steers' agar dilution MIC); format: cell-based; conditions: Enterococcus faecalis, read-out: MIC
Pr. mirabilis = assay: as above; format: cell-based; conditions: Proteus mirabilis, read-out: MIC
S. aureus (sensitive) = assay: In vitro activity (geometric mean MIC, serial dilution); format: cell-based; conditions: Staphylococcus aureus, read-out: Geometric Mean MIC
S. aureus = assay: In vitro antibacterial activity (Steers' agar dilution MIC); format: cell-based; conditions: Staphylococcus aureus
Description: (§1) In vitro Antibacterial Activity of BB-S493 Compared with
(§2) BB-S479 and Cefamandole (Determined by Steers' Agar Dilu-
(§3) tion Method on Mueller-Hinton Agar Plate)
(§4) In vitro antibacterial activity of BB-S 525 compared with
(§5) BB-S 479 and cefamandole (determined by Steers' agar dilution
(§6) method on Mueller-Hinton agar plate)

Shig. flexneri = assay: as above; format: cell-based
Description: as §1, §2, §3, §4, §5, §6

Ps. aeruginosa = assay: as above; format: cell-based
Providencia sp. = assay: In vitro activity (geometric mean MIC, serial dilution); format: cell-based; conditions: 5 strains, Mueller-Hinton agar, inoculum 10^4 dilution, MIC cutoff 200 mcg./ml., read-out: Geometric Mean MIC
Serr. marcescens = assay: In vitro antibacterial activity (Steers' agar dilution MIC); format: cell-based; conditions: Serratia marcescens
E. coli (sensitive) = assay: In vitro activity (geometric mean MIC, serial dilution); format: cell-based; conditions: Escherichia coli; 13 strains; Mueller-Hinton agar, inoculum 10^4 dilution; MIC cutoff 200 mcg./ml.; read-out: Geometric Mean MIC
Pr. rettgeri = assay: In vitro antibacterial activity (Steers' agar dilution MIC); format: cell-based; conditions: Providencia rettgeri
[6] = system: S. aureus penicillinase+); assay: In vitro activity (geometric mean MIC, serial dilution); format: cell-based; conditions: Staphylococcus aureus, read-out: Geometric Mean MIC
S. pyogenes = assay: as above; format: cell-based; conditions: Streptococcus pyogenes; 10 strains; Mueller-Hinton agar, inoculum 10^4 dilution; MIC cutoff 200 mcg./ml.
S. aureus Smith = assay: In vivo activity (Mice, sc); conditions: several determinations listed
Description: |In vivo Activity of BB-[…] and Related Compounds (Mice, sc) | (PD50 (mgm./kg.)

S. marcescens = assay: In vitro activity (geometric mean MIC, serial dilution); format: cell-based; conditions: Serratia marcescens; 16 strains; Mueller-Hinton agar, inoculum 10^4 dilution; MIC cutoff 200 mcg./ml.; read-out: Geometric Mean MIC
Pr. morganii = assay: In vitro antibacterial activity (Steers' agar dilution MIC); format: cell-based; conditions: Morganella morganii, read-out: MIC

CNCc1ccccc1CC(=O)N[C@@H]1C(=O)N2C(C(=O)O)=C(CSc3ccc4nn(CC(=O)O)c(=O)n4n3)CS[C@H]12 [BB-S479, 7-[o-(Methylaminomethyl)phenylacetamido]-3-(2-carboxymethyl-2,3-dihydro-s-triazolo[4,3-b]pyridazin-3-on-6-ylthiomethyl)-3-cephem-4-carboxylic Acid]
MIC [1]: 0.4 µg/mL (≈ 0.667 µM) | MIC (Sal. enteritidis; table 2 (BB-S493), Sal. enteritidis A9531): 0.05 µg/mL (≈ 0.0834 µM) | MIC (Sal. enteritidis; table 4 (BB-S 525), Sal. enteritidis): 0.1 µg/mL (≈ 0.167 µM) | MIC (Enterob. cloacae; table 2 (BB-S493), Enterob. cloacae A9656): 1.6 µg/mL (≈ 2.67 µM) | MIC (Enterob. cloacae; table 4 (BB-S 525), Enterob. cloacae): 3.1 µg/mL (≈ 5.17 µM) | MIC (B. anthracis; table 2 (BB-S493), B. anthracis A9504): 0.025 µg/mL (≈ 0.0417 µM) | MIC (B. anthracis; table 4 (BB-S 525), B. anthracis): 0.2 µg/mL (≈ 0.334 µM) | MIC (Klebsiella sp.): 0.6 µg/mL (≈ 1 µM) | MIC [2]: 35 µg/mL (≈ 58.4 µM) | MIC [3]: 2.6 µg/mL (≈ 4.34 µM) | MIC (Proteus (indole-)): 0.5 µg/mL (≈ 0.834 µM) | MIC [4]: 4.8 µg/mL (≈ 8 µM) | MIC (Pr. vulgaris; table 2 (BB-S493), Pr. vulgaris A9436): 0.1 µg/mL (≈ 0.167 µM) | MIC (Pr. vulgaris; table 2 (BB-S493), Pr. vulgaris A9699): 0.8 µg/mL (≈ 1.33 µM) | MIC (Pr. vulgaris; table 4 (BB-S 525), Pr. vulgaris, 1st line): 0.2 µg/mL (≈ 0.334 µM) | MIC (Pr. vulgaris; table 4 (BB-S 525), Pr. vulgaris, 2nd line): 0.8 µg/mL (≈ 1.33 µM) | MIC [5]: 2.1 µg/mL (≈ 3.5 µM) | MIC (St. faecalis; table 2 (BB-S493), St. faecalis A9536): 100 µg/mL (≈ 167 µM) | MIC (St. faecalis; table 4 (BB-S 525), St. faecalis): > 100 µg/mL | MIC (Pr. mirabilis; table 2 (BB-S493), Pr. mirabilis A9554): 0.1 µg/mL (≈ 0.167 µM) | MIC (Pr. mirabilis; table 2 (BB-S493), Pr. mirabilis A9900): 0.1 µg/mL (≈ 0.167 µM) | MIC (Pr. mirabilis; table 4 (BB-S 525), Pr. mirabilis, 1st line): 0.1 µg/mL (≈ 0.167 µM) | MIC (Pr. mirabilis; table 4 (BB-S 525), Pr. mirabilis, 2nd line): 0.1 µg/mL (≈ 0.167 µM) | MIC (S. aureus (sensitive)): 0.3 µg/mL (≈ 0.5 µM) | MIC (S. aureus; table 2 (BB-S493), S. aureus A9497): 0.1 µg/mL (≈ 0.167 µM) | MIC (S. aureus; table 2 (BB-S493), S. aureus BX-1633 A9606): 0.4 µg/mL (≈ 0.667 µM) | MIC (S. aureus; table 2 (BB-S493), S. aureus Smith A9537): 0.4 µg/mL (≈ 0.667 µM) | MIC (S. aureus; table 4 (BB-S 525), S. aureus (strain not given)): 0.2 µg/mL (≈ 0.334 µM) | MIC (S. aureus; table 4 (BB-S 525), S. aureus BX-1633): 0.8 µg/mL (≈ 1.33 µM) | MIC (S. aureus; table 4 (BB-S 525), S. aureus Smith): 0.4 µg/mL (≈ 0.667 µM) | MIC (Shig. flexneri; Shigella flexneri, table 2 (BB-S493), Shig. flexneri A9684, read-out: MIC): 12.5 µg/mL (≈ 20.8 µM) | MIC (Shig. flexneri; table 4 (BB-S 525), Shig. flexneri): 12.5 µg/mL (≈ 20.8 µM) | MIC (Ps. aeruginosa; Pseudomonas aeruginosa, table 2 (BB-S493), Ps. aeruginosa A9843, read-out: MIC): > 100 µg/mL | MIC (Ps. aeruginosa; table 2 (BB-S493), Ps. aerugionsa A9930): > 100 µg/mL | MIC (Ps. aeruginosa; table 4 (BB-S 525), Ps. aeruginosa, 1st line): > 100 µg/mL | MIC (Ps. aeruginosa; table 4 (BB-S 525), Ps. aeruginosa, 2nd line): > 100 µg/mL | MIC (Providencia sp.): 4.2 µg/mL (≈ 7 µM) | MIC (Serr. marcescens; table 4 (BB-S 525), Serr. marcescens): 12.5 µg/mL (≈ 20.8 µM) | MIC (Serr. marcescens; table 2 (BB-S493), Serr. marcescens A20019, read-out: MIC): 25 µg/mL (≈ 41.7 µM) | MIC (E. coli (sensitive)): 0.2 µg/mL (≈ 0.334 µM) | MIC (Pr. rettgeri; table 2 (BB-S493), Pr. rettgeri A15167): 0.1 µg/mL (≈ 0.167 µM) | MIC (Pr. rettgeri; table 4 (BB-S 525), Pr. rettgeri): 0.8 µg/mL (≈ 1.33 µM) | MIC [6]: 0.9 µg/mL (≈ 1.5 µM) | MIC (S. pyogenes): 0.04 µg/mL (≈ 0.0667 µM) | ED50 (S. aureus Smith; Staphylococcus aureus, read-out: PD50): 0.16 mg/kg | PD50 (S. aureus Smith): 0.12 mgm./kg. and 0.2 mgm./kg. | MIC (S. marcescens): 35 µg/mL (≈ 58.4 µM) | MIC (Pr. morganii; table 2 (BB-S493), Pr. morganii A9553): > 100 µg/mL | MIC (Pr. morganii; table 2 (BB-S493), Pr. morganii A20031): 0.1 µg/mL (≈ 0.167 µM) | MIC (Pr. morganii; table 4 (BB-S 525), Pr. morganii, 1st line): > 100 µg/mL | MIC (Pr. morganii; table 4 (BB-S 525), Pr. morganii, 2nd line): 0.2 µg/mL (≈ 0.334 µM)
